Experimental data reported in PubChem BioAssay (NCI).
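Compound exposure: 48 hours, 5 concentrations, 96-well plates. Here, GI50 denotes the concentration required for 50% inhibition of growth. Definition used: TGI = concentration required for complete inhibition of growth.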

Experiments:
Assay in all cases: growth of human tumour cells (NCI), 48 h
786-0 renal = tested on: 786-0 renal
HCT-15 colon = tested on: HCT-15 colon
HOP-62 NSCLC = tested on: HOP-62 NSCLC
M14 melanoma = tested on: M14 melanoma
NCI-H460 lung = tested on: NCI-H460 lung
SK-MEL-2 melanoma = tested on: SK-MEL-2 melanoma
UACC-62 melanoma = tested on: UACC-62 melanoma
HL-60(TB) leukemia = tested on: HL-60(TB) leukemia
KM12 colon = tested on: KM12 colon
T-47D breast = tested on: T-47D breast

Row | Compound | TGI (786-0 renal) | TGI (HCT-15 colon) | TGI (HOP-62 NSCLC) | TGI (M14 melanoma) | TGI (NCI-H460 lung) | TGI (SK-MEL-2 melanoma) | TGI (UACC-62 melanoma) | TGI (HL-60(TB) leukemia) | TGI (KM12 colon) | TGI (T-47D breast) | GI50 (786-0 renal) | GI50 (HCT-15 colon) | GI50 (HL-60(TB) leukemia) | GI50 (HOP-62 NSCLC) | GI50 (KM12 colon) | GI50 (M14 melanoma) | GI50 (NCI-H460 lung) | GI50 (SK-MEL-2 melanoma) | GI50 (UACC-62 melanoma) | GI50 (T-47D breast)
1 | CN(C)C(=O)Oc1c(-c2ccccc2)c(=O)n2c3ccccc3n3c(=O)n(C)c(=O)c1c23 | > 100 µM | > 100 µM | > 100 µM | > 100 µM | > 100 µM | > 100 µM | > 100 µM | – | – | – | – | – | – | – | – | – | – | – | – | –
2 | O=C(CCC(=O)C1CCC/C1=N/O)Nc1ccc(Cl)cc1 (centres undefined) | > 100 µM | > 100 µM | > 100 µM | > 100 µM | > 100 µM | > 100 µM | > 100 µM | > 100 µM | > 100 µM | – | – | – | – | – | – | – | – | – | – | –
3 | CC(=O)N/C(=C\c1ccc(Cc2nc3c([nH]2)C(=O)c2ccccc2C3=O)cc1)c1nc2c([nH]1)C(=O)c1ccccc1C2=O | > 100 µM | – | > 100 µM | > 100 µM | > 100 µM | > 100 µM | – | > 100 µM | > 100 µM | – | – | – | – | – | – | – | – | – | – | –
4 | COc1ccccc1C(=O)N(C)c1ccc(Cl)c(C(=O)OC(C)C)c1 | > 100 µM | > 100 µM | – | > 100 µM | > 100 µM | > 100 µM | > 100 µM | – | 68.7 µM | 85.7 µM | – | – | – | – | – | – | – | – | – | –
5 | CC(=O)[O-].O=C([CH-]C(=O)c1ccccc1)c1ccccc1.O=C([CH-]C(=O)c1ccccc1)c1ccccc1.[Sm+3] | 16.3 µM | 22.5 µM | 9.04 µM | 17.5 µM | 82.6 µM | 6.93 µM | 19.8 µM | 7.08 µM | 21.2 µM | – | 3.2 µM | 5.5 µM | 1.66 µM | 1.96 µM | 1.63 µM | 4.55 µM | 2.54 µM | 2.03 µM | 3.73 µM | –
6 | O=C1C(Cl)=C(Nc2cccc(O)c2)C(=O)N1Cc1ccc(Cl)cc1Cl | 18.8 µM | 22.6 µM | 30.5 µM | 22.8 µM | 29.7 µM | 11.1 µM | 14.7 µM | – | 25.2 µM | > 100 µM | 1.94 µM | 7.45 µM | – | 14.4 µM | 10.1 µM | 8.18 µM | 11.4 µM | 1.25 µM | 3.49 µM | 19.1 µM
7 | Cn1cccc1/C=C/c1cc(Br)c(/C=C/c2cccn2C)cc1Br | 20.2 µM | 24.6 µM | – | 57.9 µM | 45.9 µM | 37.2 µM | 43.1 µM | 32.4 µM | 21.7 µM | – | – | – | – | – | – | – | – | – | – | –
8 | O=C(NC(=O)c1ccccc1[N+](=O)[O-])Nc1ccc(Oc2ncc(Cl)cn2)c(C(F)(F)F)c1 | 24.6 µM | > 38.1 µM | 66.4 µM | 39.4 µM | > 20.7 µM | – | > 100 µM | 0.125 µM | 3.63 µM | > 89.1 µM | – | – | – | – | – | – | – | – | – | –
9 | O=NN(CCCl)C(=O)NC1CCC(CC2CCC(NC(=O)N(CCCl)N=O)CC2)CC1 (centres undefined) | 69.9 µM | > 76.9 µM | 82.3 µM | > 100 µM | > 100 µM | > 100 µM | – | > 100 µM | > 100 µM | – | – | – | – | – | – | – | – | – | – | –
10 | N#CCC(=O)N1CCCCCCC1 | > 100 µM | 30.5 µM | > 100 µM | > 100 µM | > 100 µM | > 100 µM | > 100 µM | 78 µM | > 100 µM | – | – | – | – | – | – | – | – | – | – | –
11 | C=CC1=C(C)C2=NC1=CC1=NC(=C(CC)/C1=C\O)C=C1N=C3C(=C1C)C(=O)[C@H](C(=O)OC)C3=C1NC(=C2)[C@@H](C)[C@@H]1CCC(=O)O | > 100 µM | > 100 µM | – | > 100 µM | > 100 µM | > 100 µM | > 100 µM | 92.3 µM | > 100 µM | > 100 µM | – | – | – | – | – | – | – | – | – | –
12 | CC(C)=CC(=O)Cc1nc2ccc([N+](=O)[O-])cc2[nH]c1=O | > 100 µM | > 100 µM | > 100 µM | > 100 µM | > 100 µM | > 100 µM | > 100 µM | > 100 µM | – | – | – | – | – | – | – | – | – | – | – | –
13 | O=C(CC/C(CC(=O)c1ccc(Br)cc1)=N\O)Nc1ccc(Cl)c(Cl)c1 | > 100 µM | > 100 µM | > 100 µM | > 100 µM | > 100 µM | > 100 µM | > 100 µM | > 100 µM | > 100 µM | – | – | – | – | – | – | – | – | – | – | –
14 | CCC[CH2][Sn]1([CH2]CCC)[O]CC(C)[O]1 (centres undefined) | 2.84 µM | 2.35 µM | 6.62 µM | 4.87 µM | 13.9 µM | 1.83 µM | 2.91 µM | 2.62 µM | 6.23 µM | – | 1.48 µM | 1.1 µM | 0.661 µM | 2.63 µM | 2.1 µM | 1.87 µM | 2.94 µM | 0.54 µM | 1.31 µM | –
15 | Cc1ccc(C(=O)CC2=Nc3nnc(CCCCCCCc4nnc5n4C(=O)C(CC(=O)c4ccc(C)cc4)=N5)n3C2=O)cc1 | > 100 µM | > 100 µM | > 100 µM | > 100 µM | > 100 µM | – | > 100 µM | > 100 µM | > 100 µM | – | – | – | – | – | – | – | – | – | – | –
16 | CC(=O)[CH-]C(C)=O.CC(=O)[CH-]C(C)=O.CC[O-].CC[O-].[Ti+4] | > 100 µM | > 100 µM | > 100 µM | > 100 µM | > 100 µM | > 100 µM | > 100 µM | > 100 µM | > 100 µM | – | > 100 µM | > 100 µM | > 100 µM | > 100 µM | > 100 µM | > 100 µM | > 100 µM | > 100 µM | > 100 µM | –
17 | COC(=O)C(C)NC(=O)c1ccccc1I(OS(=O)(=O)C(F)(F)F)c1ccccc1 (centres undefined) | 51 µM | 41.7 µM | 90.1 µM | 32.8 µM | 59.1 µM | > 100 µM | 35 µM | – | 38.7 µM | > 100 µM | 25 µM | 16 µM | – | 29.5 µM | 17.7 µM | 1.23 µM | 20.4 µM | 41.6 µM | 17.3 µM | 36.3 µM
18 | Cn1c(=O)c2/c(n(C)c1=O)=N\C=c1\c(=O)n(C)c(=O)n(C)\c1=N\C=2 | > 100 µM | > 100 µM | > 100 µM | > 100 µM | > 100 µM | > 100 µM | > 100 µM | > 100 µM | > 100 µM | – | – | – | – | – | – | – | – | – | – | –
19 | Cc1cccc2c(O)cc(=O)oc12 | > 100 µM | – | > 100 µM | > 100 µM | > 100 µM | – | > 100 µM | > 100 µM | > 100 µM | – | – | – | – | – | – | – | – | – | – | –
20 | O=[N+]([O-])c1ccc(C=NC23CC4CC(CC(C4)C2)C3)cc1 | > 100 µM | > 100 µM | > 100 µM | > 100 µM | > 100 µM | > 100 µM | > 100 µM | > 100 µM | > 100 µM | – | – | – | – | – | – | – | – | – | – | –
